Data published in US6329377A, “Ketomethylene group-containing cysteine and serine protease inhibitors” (Cephalon, Inc., priority 2000, dated 2001).

Key:
Type in all cases: biochemical
Calpain I = target: T1, Calpain I (Homo sapiens, UniProt P07384); experiment: Inhibition of calpain I activity (IC50, fluorescence plate reader); settings: substrate 0.2 mM Succ-Leu-Tyr-MNA, pH 7.5
T1 construct: made in house
T1 sequence (P07384 1-714): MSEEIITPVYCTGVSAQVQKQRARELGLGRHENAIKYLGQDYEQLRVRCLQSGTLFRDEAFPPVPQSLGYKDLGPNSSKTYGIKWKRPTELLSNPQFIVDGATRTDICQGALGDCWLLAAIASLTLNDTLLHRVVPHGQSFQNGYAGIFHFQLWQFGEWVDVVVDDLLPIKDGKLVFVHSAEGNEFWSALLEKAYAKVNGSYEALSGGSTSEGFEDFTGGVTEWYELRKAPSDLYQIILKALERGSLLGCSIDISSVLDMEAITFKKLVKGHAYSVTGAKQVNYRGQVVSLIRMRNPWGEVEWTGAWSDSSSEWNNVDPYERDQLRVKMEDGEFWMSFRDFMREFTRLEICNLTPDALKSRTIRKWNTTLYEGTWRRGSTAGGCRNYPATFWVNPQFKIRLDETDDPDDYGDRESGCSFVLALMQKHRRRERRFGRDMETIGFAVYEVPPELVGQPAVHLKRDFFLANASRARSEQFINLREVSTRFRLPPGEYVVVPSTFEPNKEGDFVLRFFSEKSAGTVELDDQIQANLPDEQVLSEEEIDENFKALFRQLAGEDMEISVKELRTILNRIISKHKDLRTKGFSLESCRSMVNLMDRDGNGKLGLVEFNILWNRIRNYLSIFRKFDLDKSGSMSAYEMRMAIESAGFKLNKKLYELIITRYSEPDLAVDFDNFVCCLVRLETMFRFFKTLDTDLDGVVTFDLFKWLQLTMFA
T1 sequence (P04632 1-268 partner): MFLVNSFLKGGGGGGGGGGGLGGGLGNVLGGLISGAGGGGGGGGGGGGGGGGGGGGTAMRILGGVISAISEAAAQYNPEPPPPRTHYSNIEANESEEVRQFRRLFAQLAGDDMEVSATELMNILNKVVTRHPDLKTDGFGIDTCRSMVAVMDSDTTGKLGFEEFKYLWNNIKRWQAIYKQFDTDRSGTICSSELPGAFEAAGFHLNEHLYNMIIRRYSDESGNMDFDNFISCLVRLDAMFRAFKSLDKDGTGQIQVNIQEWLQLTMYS
Experimental: (§1) To evaluate inhibitory activity, stock solutions (40 times concentrated) of each compound to be tested were prepared in 100% anhydrous DMSO and 5 μL of each inhibitor preparation were aliquoted into each of three wells of a 96-well plate. Calpain I, prepared by a modification of the method of W. J. Lee et al. (Biochem. Internatl. 22: 163-171 (1990)), was diluted into assay buffer (i.e., 50 mM Tris, 50 mM NaCl, 1 mM EDTA, 1 mM EGTA, and 5 mM-mercaptoethanol, pH 7.5 including 0.2 mM Succ-Leu-Tyr-MNA) and 175 μL aliquoted into the same wells containing the independent inhibitor stocks as well as to positive control wells containing 5 μL DMSO, but no compound. To start the reaction, 20 μL of 50 mM CaCl2 in assay buffer was added to all wells of the plate, excepting three, which were used as background signal baseline controls. Substrate hydrolysis was monitored every 5 minutes for a total of 30 minutes using a Fluoroskan II fluorescence plate reader. Substrate hydrolysis in the absence of inhibitor was linear for up to 15 minutes.
Inhibition of calpain I activity was calculated as the percent decrease in the rate of substrate (S) hydrolysis in the presence of inhibitor (I) relative to the rate in its absence (o). Comparison between the inhibited and control rates was made within the linear range for substrate hydrolysis. For screening, compounds were tested at 10 μM. Compounds having 50% inhibition at 10 μM were considered active. The IC50s of inhibitors (concentration yielding 50% inhibition) were determined from the percent decrease in the rates of substrate hydrolysis in the presence of five to seven different concentrations of the test compound. The results were plotted as % inhibition versus log inhibitor concentration and the IC50 was calculated from linear regression of the data. Apparent second order rate constants were determined from analysis of reaction progress curves under pseudo-first order conditions. Each determination represents the means of three or more independent single cuvette analyses continually monitored via a Perkin-Elmer LS50B spectrofluorimeter. The rate of inhibition of hydrolysis was obtained by fitting the curve to the exponential equation (1): […]

cathepsin B = target: T2, cathepsin B (Homo sapiens, UniProt P07858); experiment: Inhibition of cathepsin B; settings: Cbz-Phe-Arg-AMC 0.1 mM; for Cat B % I @ 1 uM: pH 6.0; for inhibition at 1 µM: pH 6, 1 uM, read-out: Cat B % I @ 1 uM
T2 construct: purchased Calbiochem 219364

cathepsin L = target: T3, cathepsin L (Homo sapiens, UniProt P07711); experiment: Inhibition of cathepsin L; settings: Cbz-Phe-Arg-AMC 0.006 mM; for Cat L % I @ 1 uM: pH 6.0; for inhibition at 1 µM: pH 6, 1 uM, read-out: Cat L % I @ 1 uM
T3 construct: purchased Calbiochem 219402

thrombin = target: T4, thrombin (Homo sapiens, UniProt P00734); experiment: Inhibition of thrombin; settings: 25 μM Bz-Phe-Val-Arg-AMC; for inhibition at 10 µM: pH 7.5, read-out: Thrombin % I @ 10 uM; for Thrombin % I @ 10 uM: pH 7.5
T4 construct: purchased Sigma Chem. Co. T-7009
Experimental: as §1
(§2) Inhibition of calpain I activity was calculated as the percent decrease in the rate of substrate (S) hydrolysis in the presence of inhibitor (I) relative to the rate in its absence (o). Comparison between the inhibited and control rates was made within the linear range for substrate hydrolysis. For screening, compounds were tested at 10 μM. Compounds having 50% inhibition at 10 μM were considered active. The IC50s of inhibitors (concentration yielding 50% inhibition) were determined from the percent decrease in the rates of substrate hydrolysis in the presence of five to seven different concentrations of the test compound. The results were plotted as % inhibition versus log inhibitor concentration and the IC50 was calculated from linear regression of the data. Apparent second order rate constants were determined from analysis of reaction progress curves under pseudo-first order conditions. Each determination represents the means of three or more independent single cuvette analyses continually monitored via a Perkin-Elmer LS50B spectrofluorimeter. The rate of inhibition of hydrolysis was obtained by fitting the curve to the exponential equation (1):
(§3) Additionally, because α-chymotrypsin is not a calcium sensitive enzyme and is constitutively active, following addition of inhibitor stocks to the 96 well plates, 100 μl of a 2-fold concentrated stock of enzyme in dilution buffer was first added and the reaction started by addition of 100 μl of a 2-fold concentrated stock of substrate in assay buffer. Substrate hydrolysis was monitored every 5 minutes up to 30 minutes using a Fluoroskan II ([…]).
Inhibition of thrombin (Sigma Chem. Co. Cat. #T-7009) was evaluated as described for chymotrypsin except that the assay was performed in 50 mM Tris, 10 mM CaCl2, pH 7.5 and the substrate was 25 μM Bz-Phe-Val-Arg-AMC (Bachem cat#I-1080).

α-chymotrypsin = target: T5, α-chymotrypsin (Bos taurus, UniProt P00766); experiment: Inhibition of α-chymotrypsin; settings: 0.03 mM Succ-Ala-Ala-Pro-Phe-AMC; for Chymotrypsin % I @: 10 μM, pH 7.5; for inhibition at 10 µM: pH 7.5, 10 μM, read-out: Chymotrypsin % I @
T5 construct: purchased Sigma Chem. Co. C-3142
Experimental: as §1, §2, §3

T3 sequence (P07711 114-288 limits assumed): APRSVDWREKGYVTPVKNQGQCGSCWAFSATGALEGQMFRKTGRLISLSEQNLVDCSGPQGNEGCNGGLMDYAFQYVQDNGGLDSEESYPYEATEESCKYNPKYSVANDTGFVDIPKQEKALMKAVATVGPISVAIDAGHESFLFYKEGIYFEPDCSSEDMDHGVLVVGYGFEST
T3 sequence (P07711 292-333 limits assumed): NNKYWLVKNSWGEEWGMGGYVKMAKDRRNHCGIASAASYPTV

Row | IC50 (Calpain I) [nM] | Cat B % I @ 1 uM (cathepsin B) [%] | Cat L % I @ 1 uM (cathepsin L) [%] | inhibition at 10 µM (thrombin) [%] | Chymotrypsin % I @ (α-chymotrypsin) [%] | Thrombin % I @ 10 uM (thrombin) [%] | inhibition at 10 µM (α-chymotrypsin) [%] | inhibition at 1 µM (cathepsin B) [%] | inhibition at 1 µM (cathepsin L) [%] | SMILES
1 | 28 | 100 | 96 | 0 | 39 | – | – | – | – | CC(C)CC(CC(=O)N1CCc2ccccc2C1)C(=O)N[C@H](C=O)Cc1ccccc1 (single isomer, unassigned) [Compound 16f-I, 2-THIQ-COCH2 CH(iBu)Cd-Phe-H]
2 | 1000 | 71 | 52 | – | 12 | 0 | – | – | – | CC(C)CC(CC(=O)N1CCc2ccccc2C1)C(=O)N[C@H](C=O)Cc1ccccc1 (single isomer, unassigned) [Compound 16f-II, 2-THIQ-COCH2 CH(iBu)CO-Phe-H (Diastereomer)]
3 | 227 | 100 | 97 | 0 | – | – | 0 | – | – | CC(C)CC(CC(=O)N1CCN(c2ccccc2)CC1)C(=O)N[C@H](C=O)CC(C)C (single isomer, unassigned) [Compound 16g-I, Ph-Piperazine-COCH2 CH(iBu)CO-Leu-H]
4 | 4500 | 67 | 35 | – | 0 | 0 | – | – | – | CC(C)CC(CC(=O)N1CCN(c2ccccc2)CC1)C(=O)N[C@H](C=O)CC(C)C (single isomer, unassigned) [Compound 16g-II, Ph-Piperazine-COCH2 CH(iBu)CO-Leu-H]
5 | 8440 | – | – | 0 | – | – | 0 | 10 | 81 | CCNC(=O)C(=O)C(CC)NC(=O)C(CC(=O)CCCCc1ccccc1)CC(C)C (stereo not drawn) [Compound 8a, Ph(CH2)4 COCH2 CH(iBu)CO-Abu-CONHEt]
6 | 6690 | – | – | 0 | – | – | 0 | 84 | 98 | CCNC(=O)C(=O)C(CC)NC(=O)C(CC(=O)[C@@H](CC)c1ccccc1)CC(C)C (stereo partly drawn) [Compound 8b, CH3 CH2 CH(Ph)COCH2 CH(iBu)CO-Abu-CONHEt]
7 | 1730 | – | – | 0 | – | – | 6 | 100 | 100 | CCNC(=O)C(=O)C(CC)NC(=O)C(CC(=O)C(c1ccccc1)c1ccccc1)CC(C)C (stereo not drawn) [Compound 8c, Ph2 CHCOCH2 CH(iBu)CO-Abu-CONHEt]
8 | 485 | – | – | 10 | – | – | 7 | 78 | 100 | CCNC(=O)C(=O)C(CC)NC(=O)C(CC(=O)C1c2ccccc2Oc2ccccc21)CC(C)C (stereo not drawn) [Compound 8d, Xanthene-COCH2 CH(iBu.)CO-Abu-CONHEt]
9 | 380 | – | – | 0 | – | – | 0 | 100 | 95 | CCNC(=O)C(=O)C(CC)NC(=O)C(CC(=O)[C@H](CC(C)C)NC(=O)OCc1ccccc1)CC(C)C (stereo partly drawn) [Compound 8e, Z-Leu-CH2 CH(iBu)CO-Abu-CONHEt]
10 | 130 | – | – | 13 | – | – | 93 | 98 | 100 | CCNC(=O)C(=O)C(CC(C)C)NC(=O)C(CC(=O)C1c2ccccc2Oc2ccccc21)CC(C)C (stereo not drawn) [Compound 8f, Xanthene-CO(CH2 CH(iBu)CO-Leu-CONHEt]
11 | – | – | – | 0 | – | – | 61 | 97 | 100 | CC(C)CC(CC(=O)CCCCc1ccccc1)C(=O)N[C@H](C=O)CC(C)C (stereo partly drawn) [Compound 16a, Ph(CH2)4 COCH2 CH(iBu)CO-Leu-H]
12 | 55 | – | – | 0 | – | – | 21 | 99 | 100 | CCC(C(=O)CC(CC(C)C)C(=O)N[C@H](C=O)CC(C)C)c1ccccc1 (stereo partly drawn) [Compound 16b, CH3 CH2 CH(Ph)COCH2 CH(iBu)CO-Leu-H]
13 | 50 | – | – | 1 | – | – | 62 | 97 | 100 | CC(C)CC(CC(=O)C(c1ccccc1)c1ccccc1)C(=O)N[C@H](C=O)CC(C)C (stereo partly drawn) [Compound 16c, Ph2 CHCOCH2 CH(iBu)CO-Leu-H]
14 | – | – | – | 25 | – | – | 98 | 76 | 100 | CC(C)CC(CC(=O)C1c2ccccc2Oc2ccccc21)C(=O)N[C@H](C=O)CC(C)C (stereo partly drawn) [Compound 16d, Xanthene-COCH2 CH(iBu)CO-Leu-H]
15 | 71 | – | – | – | – | – | – | – | – | CC(C)CC(CC(=O)CN(CC(C)C)C(=O)OCc1ccccc1)C(=O)N[C@H](C=O)CC(C)C (stereo partly drawn) [Compound 32, Z-N(iBu)CH2 COCH2 CH(iBu)CON H-Leu-H]
